Activity calls are given as the source filed them. No cut-off for these calls is given here.
Columns and labels:
Mus musculus [1] = assay: Neuroprotective activity against controlled cortical impact-induced C57Bl/6 acute mouse model of traumatic brain injury assessed as lesion volume at 54 mg/kg, ip administered twice daily for 3 days starting from 0.5 hrs post controlled cortical impact challenge measured post-last dose by naurotrace 435/455 staining-based fluorescent microscopy (reference value: 11.9 +/- 0.7 mm3); type: functional
Brain [2] = assay: (§1) In vitro anticonvulsant activity in kainic acid-induced albino Sprague Dawley rat brain assessed as blockade of ACSF-stimulated spontaneous electrographic seizure-like activity in medial entorhinal cortex hippocampal brain slices by measuring burst duration at 100 uM measured after 20 mins relative to control; type: functional
Mus musculus [3] = assay: Anticonvulsant activity in albino CF1 mouse assessed as metrazol dose causing first clonus at 196 mg/kg, ip administered 0.25 hrs prior to MTZ challenge (reference value: 30.9 +/- 1.6 mg/kg); type: functional
Mus musculus [4] = assay: Anticonvulsant activity in albino CF1 mouse assessed as metrazol dose causing first clonus at 54 mg/kg, ip administered 0.25 hrs prior to MTZ challenge (reference value: 30.9 +/- 1.6 mg/kg); type: functional
Mus musculus [5] = assay: Anticonvulsant activity in albino CF1 mouse model of metrazol-induced seizures assessed as metrazol dose causing first twitch at 196 mg/kg, ip administered 0.25 hrs prior to MTZ challenge (reference value: 27.6 +/- 1.3 mg/kg); type: functional
Mus musculus [6] = assay: Anticonvulsant activity in albino CF1 mouse model of metrazol-induced seizures assessed as metrazol dose causing first twitch at 54 mg/kg, ip administered 0.25 hrs prior to MTZ challenge (reference value: 27.6 +/- 1.3 mg/kg); type: functional
Mus musculus [7] = assay: Anticonvulsant activity in albino CF1 mouse assessed as time to clonus at 196 mg/kg, ip administered 0.25 hrs prior to MTZ challenge (reference value: 29 +/- 1.6 s); type: functional
Mus musculus [8] = assay: Anticonvulsant activity in albino CF1 mouse assessed as time to clonus at 54 mg/kg, ip administered 0.25 hrs prior to MTZ challenge (reference value: 29 +/- 1.6 s); type: functional
Mus musculus [9] = assay: Anticonvulsant activity in albino CF1 mouse model of metrazol-induced seizures assessed as time to twitch at 54 mg/kg, ip administered 0.25 hrs prior to MTZ challenge (reference value: 25.9 +/- 1.3 s); type: functional
Mus musculus [10] = assay: Anticonvulsant activity in albino CF1 mouse model of metrazol-induced seizures assessed as time to twitch at 196 mg/kg, ip administered 0.25 hrs prior to MTZ challenge (reference value: 25.9 +/- 1.3 s); type: functional
[11] = Toxicity in albino CF1 mouse assessed as body weight at 54 mg/kg, ip measured at 0.25 hrs (reference value: 26.5 +/- 0.3 g); type: organism-based; conditions: in vivo
[12] = Toxicity in albino CF1 mouse assessed as body weight at 196 mg/kg, ip measured at 0.25 hrs (reference value: 26.5 +/- 0.3 g); type: organism-based; conditions: in vivo
Mus musculus [13] = assay: Anticonvulsant activity in ip dosed 60-Hz corneal stimulation-induced full kindling albino CF1 mouse model of epilepsy assessed as reduction in seizure score treated 0.25 hrs prior to 60-Hz corneal stimulation; type: functional
Mus musculus [14] = assay: Anticonvulsant activity in 60-Hz corneal stimulation-induced full kindling albino CF1 mouse model of epilepsy assessed as reduction in seizure score at 94 mg/kg, ip administered 0.25 hrs prior to 60-Hz corneal stimulation; type: functional, organism-based
Brain [15] = assay: as §1, with “rate” for “duration”; type: functional
Mus musculus [16] = assay: Analgesic activity in formalin-induced albino CF1 mouse model of hyperalgesia assessed as time spent in paw licking during acute phase at 186 mg/kg, ip administered 0.25 hrs prior to formalin challenge measured first 2 mins of five minutes test for 10 mins by formalin test relative to control; type: functional
Mus musculus [17] = assay: Analgesic activity in formalin-induced albino CF1 mouse model of hyperalgesia assessed as time spent in paw licking during inflammatory phase at 186 mg/kg, ip administered 0.25 hrs prior to formalin challenge measured first 2 mins of five minutes test for 10 mins by formalin test relative to control; type: functional

SMILES	Activity (Mus musculus [1]) [mm3]	Activity (Brain [2]) [%]	Activity (Mus musculus [3]) [mg/kg]	Activity (Mus musculus [4]) [mg/kg]	Activity (Mus musculus [5]) [mg/kg]	Activity (Mus musculus [6]) [mg/kg]	Time (Mus musculus [7]) [s]	Time (Mus musculus [8]) [s]	Time (Mus musculus [9]) [s]	Time (Mus musculus [10]) [s]	Activity [11] [g]	Activity [12] [g]	ED50 (Mus musculus [13]) [mg/kg]	Activity (Mus musculus [14])	Activity (Brain [15]) [%]	Activity (Mus musculus [16]) [%]	Activity (Mus musculus [17]) [%]
CCC(CO)NC(=O)/C=C/c1ccc(Cl)cc1 (racemic)	11.44	90	98.6	44.9	68.7	36.2	90.2	42.1	33.9	63	26.5	26	25.7	Active	87	–	–
O=C(/C=C/c1ccc(Cl)cc1)N[C@H]1CC[C@H](O)CC1	–	–	–	–	–	–	–	–	–	–	–	–	–	–	–	21.89	0

— ChEMBL document CHEMBL4387714, “Four N-(E)-cinnamoyl (cinnamamide) derivatives of aminoalkanols with promising anticonvulsant and analgesic activity” (Bioorg Med Chem Lett, 2019)
